From publication PMC5352051, “Identification of a novel Polo-like kinase 1 inhibitor that specifically blocks the functions of Polo-Box domain” (Oncotarget, 2016)

Experiments:
[1] = system: Plk1, Cyclin B1 and pHH-3 in HeLa cells; test: Western blot of mitotic markers; type: cell-based, human; conditions: synchronized HeLa, indicated concentrations, 16 hrs
Description: HeLa cells were collected after trypsinization and lysed with RIPA buffer. Equal amount of proteins (30 μg/lane) were loaded, separated by 15% SDS-PAGE. After blocking with blocking buffer for 2 hrs at RT, the membrane was incubated with the following primary antibodies diluted in blocking buffer overnight at 4°C: anti-hPlk1 mouse monoclonal antibody (Cat# P5998; Sigma; 1:3000), anti-CyclinB1 rabbit polyclonal antibody (Cat# SAB4503501; Sigma; 1:2000), anti-pHH3 rabbit monoclonal antibody (Cat# 04-817; Millipore; 1:2000), anti-GAPDH rabbit polyclonal antibody (Cat# P30008; Abmart; 1:2000). The membrane was washed 3 times and then incubated with Horseradish Peroxidase-conjugated secondary antibodies for 1 hr at RT and visualized with ECL system (Millipore). The level of GAPDH was used as the loading control.

[2] = target: T1, Plk1 PBD (Homo sapiens, UniProt P53350); test: Circular dichroism spectroscopy; conditions: complex with T521
T1 construct: (326-603 aa), Plk2 (355-685 aa), and Plk3 (335-646 aa); 6xHis (N); 6xHis (C); made in house; host or cells: E. coli Rosetta BL21(DE3)
Description: PAGE, and then the stained band was excised from The raw data was processed using Proteome the polyacrylamide gel, washed twice with water, and Discoverer software (Thermo Fischer). MS2 spectra destained with 40% ACN/50 mM NH4HCO3. The gel were searched with SEQUEST engine against target Plk1 pieces were dehydrated with 100% ACN and dried for protein and common pollution proteins database (246 5 min using a speedvac. Disulfide bonds were reduced Protein Sequences). Database searches were performed by treatment with DTT (10 mM, 56°C, 45 min), and the with the following parameters: precursor mass tolerance free sulfhydryl groups were alkylated with iodoacetamide 20 ppm; MS/MS mass tolerance 0.6 Da; two missed (55 mM, 25°C, 60 min in the dark). After drying with cleavage for tryptic peptides; variable modifications a speedvac, the gel was rehydrated using 100 ng/μL oxidation (M), T521 fragment modification (+301.02) trypsin (50 mM NH4HCO3, pH8.3) on ice for 30 min, (K, R), fixed modification Carbamidomethyl (C), the and the digestion was carried out at 37°C for 60 min and results were filtered for a 1% false discovery rate (FDR) then quenched with 1.0% FA. The tryptic peptides were at the PSM level utilizing the percolator-based algorithm. extracted twice with 60% ACN containing 0.1% FA, and Peptide identifications were grouped into proteins then the combined digest solution was concentrated to 25 according to the law of parsimony. […]
B; 90–91 min, 80%–4% B; 91–100 min, 4% B. Eluting the calculation of mean residue ellipticity. […] Three MS spectra were acquired from m/z 300 to m/z 1,800, and independent experiments were performed for each sample. the 10 most intense ions with charges more than 2 and Spectral deconvolution of CD data was performed using above an intensity threshold 500 were fragmented in the CDNN to determine relative quantities of α-helix, linear ion trap using normalized collision energy of 35%. β-sheet, β-turn and random coil. […]

[3] = target: T2, Plk1-Bub1 interaction (Homo sapiens, UniProt P53350); test: Co-immunoprecipitation (IP) assay in HeLa cells; type: cell-based; conditions: HeLa cells released from double-thymidine arrest, 5, 10, 15 μM, 10 hrs
T2 construct: endogenous in cells; host or cells: HeLa
Description: HeLa cells were synchronized in G1/S boundary by double-thymidine block as described, and then released into medium containing DMSO and T521 (5, 10, 15 μM) for 10 hrs. For Co-IP assay, rabbit polyclonal anti-Bub1 antibody (Cat# ab70372; Abcam) was coupled to Protein A-Agarose beads (Cat# sc-2001; Santa Cruz) at a concentration 100 μg/mL. Treated HeLa cells were lysed with RIPA buffer. After clearing by centrifugation, the lysate was incubated with the beads coupled to anti-Bub1 antibody for 2 hrs at 4°C. The beads were washed with the lysis buffer for three times. The proteins bound to the beads were dissolved in loading buffer and separated by 10% SDS-PAGE, and probed with the mouse monoclonal anti-hPlk1 antibody (Cat# P5998; Sigma; 1:3000) and rabbit polyclonal anti-Bub1 antibody (Cat# ab70372;Abcam; 1:2000), respectively.

[4] = system: normal cell lines, MRC5, HEK-293 and L02 cells; test: MTT assay, panel of normal cell lines; type: cell-based; conditions: Homo sapiens; three exponentially growing normal cell lines; read-out: IC50 proliferation, range over cell lines
Description: The MTT assay was performed as described. In brief, cells were seeded at 3000~5000 cells/well into 96-well plates (200 μL/well) and incubated overnight. We replaced the growth medium with fresh medium containing T521 at several concentrations (two-fold dilutions and the initial concentration is 50 μM, 10 reactions total). After further incubation for 48 hrs in the presence of T521, the medium was removed from all wells and the cells were incubated with 200 μL of fresh medium for additional 24 hrs. We then added 22 μL of MTT solution (Amresco; 5 mg/mL in PBS) to each well and incubated the plate for 4 hrs at 37°C. After removing the medium, we dissolved the purple MTT-formazan crystals by adding 150 μL of DMSO to each well and recorded absorbance at 560 nm by Envision Multilabel Reader (PerkinElmer). The inhibition curve was plotted to determine the IC50 of various cell lines using GraphPad Prism5.0.

T1 sequence (P53350 326-603): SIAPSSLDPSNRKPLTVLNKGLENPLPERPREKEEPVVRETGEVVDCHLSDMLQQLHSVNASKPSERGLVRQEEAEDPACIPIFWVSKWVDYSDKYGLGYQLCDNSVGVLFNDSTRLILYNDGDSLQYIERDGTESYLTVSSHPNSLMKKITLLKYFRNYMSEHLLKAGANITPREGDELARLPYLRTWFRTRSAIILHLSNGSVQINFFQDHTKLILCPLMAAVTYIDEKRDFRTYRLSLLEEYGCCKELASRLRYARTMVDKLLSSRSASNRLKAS
T2 sequence (P53350 2-603 limits assumed): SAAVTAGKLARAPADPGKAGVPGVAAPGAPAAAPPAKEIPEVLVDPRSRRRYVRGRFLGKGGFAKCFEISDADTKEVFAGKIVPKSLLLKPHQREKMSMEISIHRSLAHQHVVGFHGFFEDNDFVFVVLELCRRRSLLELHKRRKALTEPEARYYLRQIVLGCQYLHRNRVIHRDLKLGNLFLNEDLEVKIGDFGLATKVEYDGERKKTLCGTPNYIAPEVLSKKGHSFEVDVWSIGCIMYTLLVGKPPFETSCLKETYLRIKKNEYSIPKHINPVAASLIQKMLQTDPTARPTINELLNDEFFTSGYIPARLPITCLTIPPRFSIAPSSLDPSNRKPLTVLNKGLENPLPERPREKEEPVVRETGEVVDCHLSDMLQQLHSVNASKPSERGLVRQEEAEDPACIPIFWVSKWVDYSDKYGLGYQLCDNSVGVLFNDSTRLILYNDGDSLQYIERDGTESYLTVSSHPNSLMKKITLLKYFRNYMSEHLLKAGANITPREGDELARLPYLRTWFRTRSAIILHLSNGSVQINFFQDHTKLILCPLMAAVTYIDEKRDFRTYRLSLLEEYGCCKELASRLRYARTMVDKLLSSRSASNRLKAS

SMILES: CCS(=O)(=O)c1oc(-c2ccc(F)cc2)nc1S(=O)(=O)c1ccccc1 [T521, 5-(ethylsulfonyl)-2-(4-fluorophenyl)-4-(phenylsulfonyl) oxazole]
- mitotic markers (Plk1, Cyclin B1, pHH-3) protein levels [1]: accumulation of these mitotic markers
- β-turn composition of Plk1 PBD complex ([2]; native Plk1 PBD 21.08%): 29.59%
- α-helix composition of Plk1 PBD complex ([2]; native Plk1 PBD 26.18%): 11.63%
- random coil composition of Plk1 PBD complex ([2]; native Plk1 PBD 34.80%): 41.46%
- Plk1 protein level in Bub1 immunoprecipitates [3]: clear decrease
- IC50 [4]: 3 to 10 µM
